In patent publication US20140114067A1, “BENZIMIDAZOLE DERIVATIVES AS MITOCHONDRIAL FUNCTION MODULATORS” (KOREA INSTITUTE OF SCIENCE AND TECHNOLOGY, priority 2012, published 2014):

Key:
[1] = tested on: HT-22 cells; assay: Improvement in mitochondrial membrane potential dropped by amyloid beta (JC-1 dye); assay type: cell-based; details: compound 5 μM, amyloid beta 5 μM, 3 hours, JC-1 green:red ratio, amyloid beta damage = 0%, normal = 100%
Experimental: (§1) Meanwhile, the compound represented by Formula 1 according to the present invention is evaluated through a test to determine recovery of mitochondrial functions damaged by amyloid beta, as described in the following Test Example. After the test, the results are shown in terms of the percentages of mitochondrial function disorder caused by amyloid beta. The degree of mitochondrial function disorder caused by amyloid beta is taken as 0% and the normal condition in the absence of amyloid beta is shown as 100%.
To a transparent 96-well plate, HT-22 cells are inoculated in a number of 30,000 per well one day before the test. On the next day, JC-1 dye (Stratagen, USA) is diluted with Opti-MEM containing no phenol red to a concentration of 7.5 μM, and the resultant dilution is used to treat the cells for 1 hour and 15 minutes. The dyed cells are washed twice with phosphate buffer solution (PBS), followed by treatment with each compound to a final concentration of 5 μM per well. Then, the cells are cultured at 37° C. for 10 minutes. Particularly, for each drug, two wells are treated with amyloid beta (5 μM) and the other two wells are treated with the vehicle control (5 μM DMSO). Then, the cells are cultured at 37° C. for 3 hours. The fluorescence intensity of each well is read by using a fluorescence plate reader at 485/535 nm (green/J-monomer) and 560/595 nm (red/J-aggregate). Then, the ratio of green:red is calculated and the results are normalized by taking the change of the ratio between addition of amyloid beta and no-addition of amyloid beta in the vehicle control non-treated with drugs as 100%.

[2] = tested on: HT-22 cells; assay: Recovery of ATP production capability reduced by amyloid beta (luciferin/luciferase); assay type: cell-based; details: compound 5 μM, amyloid beta 5 μM, 7 hours, amyloid beta vehicle control without drug = 0%
Experimental: as §1
To a transparent 96-well plate, HT-22 cells are inoculated in a number of 10,000 per well one day before the test, followed by treatment with each compound to a final concentration of 5 μM per well. The cells are cultured at 37° C. for 10 minutes. Particularly, for each drug, two wells are treated with amyloid beta (5 μM) and the other two wells are treated with the vehicle control (5 μM DMSO). After the treatment, the cells are cultured at 37° C. for 7 hours. The cells treated with each drug are washed twice with PBS, lysed with Triton X-100 (1% in TSBT buffer) and agitated at room temperature for 5 minutes. […] is used to determine the protein amount of each well, and the same amount of protein taken from each well is added to a white 96-well plate. Then, […] (Molecular Probe, USA) for ATP determination containing d-luciferin and luciferase is added thereto and emission peaks generated from each of the wells are determined. After the determination, the peaks are normalized by taking the vehicle control to which amyloid beta is added without treatment with any drug as 0%.

Row | Compound | Improvement in Membrane Potential (%) (5 μM) [1] | ATP Production Capability Recovery (%) (5 μM) [2]
1 | Cc1ccc(C(C)C)cc1NC(=O)Cn1c(-c2cc(Cl)ccc2Cl)nc2ccc(Cl)cc21 [Compound 25, 2-(6-chloro-2-(2,5-dichlorophenyl)-1H-benzo[d]imidazol-1-yl)-N-(5-isopropyl-2-methylphenyl)acetamide] | 87 | 69
2 | CCN1CCCC1CNC(=O)c1ccc(Cn2c(Cc3c(Cl)cccc3Cl)nc3ccccc32)cc1 (centres unmarked) [Compound 32, 4-((2-(2,6-dichlorobenzyl)-1H-benzo[d]imidazol-1-yl)methyl)-N-((1-ethylpyrrolidin-2-yl)methyl)benzamide] | 90 | 51
3 | CN(C)CCCNC(=O)c1ccc(Cn2c(Cc3c(Cl)cccc3Cl)nc3ccccc32)cc1 [Compound 34, 4-((2-(2,6-dichlorobenzyl)-1H-benzo[d]imidazol-1-yl)methyl)-N-(3-(dimethylamino)propyl)benzamide] | 82 | 85
4 | O=C(NCCCN1CCCCC1)c1ccc(Cn2c(Cc3c(Cl)cccc3Cl)nc3ccccc32)cc1 [Compound 37, 4-((2-(2,6-dichlorobenzyl)-1H-benzo[d]imidazol-1-yl)methyl)-N-(3-(piperidin-1-yl)propyl)benzamide] | 90 | 64
